# Tests used:
# ptc-lacZ skin punches = experiment: Skin explants from ptc-lacZ pups (X-Gal stain); assay type: cell-based, mouse; conditions: agonist alone, cultured 6 days
# Experimental: Skin from ptc-lacZ E17.5 pups was excised with a 2 mm skin punch. Those skin punches were then cultured for 6 days in control media, or media including either agonist B or D or Hh protein, or media including both an agonist and Hh protein. The explants were then stained with X-Gal stain.
# [1] = system: cerebellar neuron precursors; experiment: Cerebellar neuron precursor proliferation (3H-thymidine incorporation); assay type: cell-based, rat; conditions: for induction of 3H thymidine incorporation: absence of Shh
# Experimental: In order to test the efficacy of Hedgehog signaling agonists, the ability of the agonists to stimulate the proliferation of cerebellar neuron precursors was determined. Cerebellar granule neuron precursors are known to respond to Hh protein by proliferating. To test the agonists, cerebellar neurons were dissected out of postnatal (one week) rat brains, and placed into primary cell culture. Treatment agents were added once, on the first day of culture (0 DIV). Cells were left in culture until 2 DIV, when 3H-thymidine was added for 5 hours; the amount of incorporation by the cells of this 3H-thymidine provides a measure of the level of proliferation of the cells. Cells were then lysed, and the incorporation of 3H-thymidine was determined. The positive control was Hh protein, at 1.0 μg/ml final concentration. Hh protein alone caused approximately a 20-fold increase in 3H-thymidine incorporation, consistent with the known ability of Shh to stimulate proliferation of these cells. Non-Hh-protein-stimulated cells, including cells treated with control vehicle (DMSO), had very low levels of proliferation. […] At 5.0 μM, the p-cyanophenyl compound B caused 10.2-fold induction of 3H-thymidine incorporation. […] At 1.0, 0.3, or 0.1 μM, D caused 16-, 17-, or 13-fold induction, respectively, of 3H thymidine incorporation into the cells.
# [2] = system: hedgehog-responsive Gli-Luc reporter-construct; experiment: Gli-Luc hedgehog pathway reporter assay in [10T1/2(s12)] cells; assay type: cell-based, murine; conditions: Table 1
# How it was run: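 10T1/2(s12) cells carrying a Gli-Luc reporter, switched to 0.5% FBS medium, then exposed to compound for 24 hr; luciferase read by luminescence. Screen A: 1-2 μM with Hh protein at 0.01 μg/ml (about EC30); Screen B: 5 μM without Hh. Activity expressed as percent of full Hh-induced signal.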
smiles,measurement,setting,value
CNC1CCC(N(Cc2ccc(OC)c(-c3ccc(C#N)cc3)c2)C(=O)c2sc3ccccc3c2Cl)CC1 (stereo not drawn) [D],X-Gal staining of skin explants,ptc-lacZ skin punches,Analogous results
same,induction of 3H thymidine incorporation,[1]; 0.1 μM,13 fold
same,induction of 3H thymidine incorporation,[1]; 0.3 μM,17 fold
same,induction of 3H thymidine incorporation,[1]; 1.0 μM,16 fold
same,stimulation of 3H-thymidine incorporation,[1]; absence of Hh protein treatment,strongly stimulated 3H-thymidine incorporation
same,EC50,[2],< 100 nM

# Source: patent US8129425B2, “Small organic molecule regulators of cell proliferation” (Curis, Inc., priority 2000, dated 2012)
